Data from patent US5780653A, “Nitrophenyl, 10-deacetylated substituted taxol derivatives as dual functional cytotoxic/radiosensitizers” (Vivorx Pharmaceuticals, Inc., priority 1995, dated 1998).

Key:
[1] = test system: breast adenocarcinoma cell line MCF-7; test: In vitro cytotoxicity of paclitaxel derivatives (macroscopic colony formation); type: cell-based
Experimental: Taxol derivatives were assayed for their cytotoxic activities on tumor cell lines in vitro. The breast adenocarcinoma cell line MCF-7 was chosen as a model for the cytotoxicity assay. The cell line was maintained in RPMI 1640 medium supplemented with 10% fetal bovine serum. For the cell survival experiments, a number of 100 mm petri dishes were plated with 5×10^5 cells. Exponentially growing cells were exposed to paclitaxel or paclitaxel derivatives at various concentrations 24 hours later. After exposure to paclitaxel and derivatives for various times, the cells were rinsed, trypsinized and washed with medium. The cells were resuspended as single cell suspensions, counted with a particle counter, plated and incubated for macroscopic colony formation. Following a one to two week incubation, the colonies were fixed with methanol/acetic acid, stained with crystal violet and colonies with more than 50 cells counted. […] The survival was reported as the fraction of cells surviving after exposure to paclitaxel or derivatives thereof. As an example, the cytotoxicity of the derivative synthesized in Example 9, i.e., 3'-Desphenyl-3'-(4-nitrophenyl)-N-debenzoyl-N-(t-butoxycarbonyl)-10-deacetyltaxol, is reported herein.

tubulin = test: In vitro microtubule assembly of paclitaxel derivatives (turbidity, absorbance at 350 nm); type: biochemical; details: for absorbance (at 350 nm), tubulin polymerization at 10° C. / absorbance (at 350 nm), tubulin polymerization at 37° C.: 10 μM tubulin, 10 μM taxol or derivative; for absorbance (at 350 nm), tubulin polymerization at 10° C.: pH 6.8, 10° C.; for absorbance (at 350 nm), tubulin polymerization at 37° C.: pH 6.8, 37° C.
Description: Paclitaxel inhibits cell replication in the mitotic phase of the cell cycle by promoting polymerization and stabilization of microtubules. Microtubules are polymers of tubulin in dynamic equilibrium with tubulin heterodimers that are composed of alpha and beta protein subunits. Unlike other antimicrotubule agents, such as the vinca alkaloids (that induce microtubule disassembly), paclitaxel shifts the equilibrium towards microtubule assembly. Paclitaxel-induced microtubules are excessively stable, thereby inhibiting the dynamic reorganization of the microtubule network. The cytotoxic properties of paclitaxel are caused by its unique disruptive effects on microtubules. Thus the activity of taxol or taxol analogs and derivatives may be assessed in vitro by their ability to polymerize tubulin into microtubules (Chaudhary et al. Journal of the American Chemical Society 116:4097-4098 (1994). The polymerization of tubulin is accompanied by a concomitant increase in solution turbidity associated with the formation of microtubules. This increase in turbidity can be assayed spectrophotometrically.
Thus, 10 μM tubulin was dissolved in 0.1M MES buffer containing 100 μM GTP and 0.5 mM MgCl2 with a final pH of 6.8. 10 μM tubulin was added to the buffer. 10 μM of taxol (or taxol derivatives) was added to the buffer at 0° C. and the absorbance of the sample measured at 350 nm as the sample temperature increased rapidly to 37° C. with the aid of a circulating water bath connected to the sample chamber of the spectrophotometer. The maximum absorbance of the sample was measured and compared to that of taxol as a control to determine any change in activity of the paclitaxel derivatives.

[2] = compared with paclitaxel; cited from earlier work
microtubule = details: compared with paclitaxel; cited from earlier work
central nervous system = details: large-scale clinical trials; cited from earlier work
rodent tumors = details: some rodent tumors; cited from earlier work
cultured mammalian cells = details: cited from earlier work
[3] = test system: human breast and lung cell lines; details: cited from earlier work
[4] = test system: HL-60 human leukemic cell line; details: cited from earlier work
[5] = test system: cervical carcinoma cell lines; details: cited from earlier work
[6] = cited from earlier work
[7] = test system: three human ovarian cancer cell lines; details: cited from earlier work
[8] = intravenous infusion every 2-3 weeks, patients; cited from earlier work
[9] = test system: grade III human astrocytoma cell line, G18; details: paclitaxel pretreatment and gamma irradiation; cited from earlier work

**Q.** What does the source list for “3'-Desphenyl-3'-(4-nitrophenyl)-N-debenzoyl-N-(isopropoxycarbonyl)-10-deacetyltaxol [Example 9]”?
**A.** surviving fraction of MCF-7 cells ([1]; 10 nM, 24 hours): 2×10^-3; increase in cytotoxicity over unmodified taxol ([1]; MCF-7, 10 nM, 24 hours): 30 fold

**Q.** What does the source list for `CC(=O)O[C@@]12CO[C@@H]1C[C@H](O)[C@@]1(C)C(=O)[C@H](O)C3=C(C)[C@@H](OC(=O)C(O)C(NC(=O)OC(C)(C)C)c4ccc([N+](=O)[O-])o4)C[C@@](O)([C@@H](OC(=O)c4ccccc4)[C@H]21)C3(C)C` (some centres unmarked) [Example 6]?
**A.** absorbance (at 350 nm), tubulin polymerization at 10° C. (tubulin): 0.37; absorbance (at 350 nm), tubulin polymerization at 37° C. (tubulin): 0.71; tubulin polymerization activity relative to taxol (ratio of absorbances) (tubulin; 37° C.): 2.4 times that of taxol; activity in tubulin assembly compared with unmodified taxol (tubulin; both at low temperature and at physiological temperatures): substantially more active in tubulin assembly than unmodified taxol

**Q.** Which results are given for `CC(=O)O[C@@]12CO[C@@H]1C[C@H](O)[C@@]1(C)C(=O)[C@H](O)C3=C(C)[C@@H](OC(=O)[C@H](O)[C@@H](NC(=O)OC(C)(C)C)c4ccccc4)C[C@@](O)([C@@H](OC(=O)c4ccccc4)[C@H]21)C3(C)C` [docetaxel]?
**A.** cytotoxicity [2]: more active than paclitaxel; microtubule assembly activity (microtubule): more active than paclitaxel

**Q.** Which “toxicity to the central nervous system” value (central nervous system) does the source give for `COCC(O)Cn1ccnc1[N+](=O)[O-]` (centres unmarked) [misonidazole] here?
**A.** toxic to the central nervous system

**Q.** And the “hypoxic-cell sensitization, rodent tumors” value (rodent tumors)?
**A.** excellent hypoxic-cell sensitizer

**Q.** What about the “hypoxic-cell sensitization, cultured mammalian cells” value (cultured mammalian cells) of the same compound?
**A.** excellent hypoxic-cell sensitizer

**Q.** With `CC(=O)O[C@H]1C(=O)[C@@]2(C)[C@H]([C@H](OC(=O)c3ccccc3)[C@]3(O)C[C@H](OC(=O)[C@H](O)[C@@H](NC(=O)c4ccccc4)c4ccccc4)C(C)=C1C3(C)C)[C@]1(OC(C)=O)CO[C@@H]1C[C@@H]2O` [paclitaxel] as the compound, how does the “enhancement in radiosensitization, human breast and lung” value [3] read?
**A.** have not observed an enhancement in radiosensitization

**Q.** What about the “radiosensitization, HL-60” value [4] of the same compound?
**A.** radiosensitization

**Q.** And the “absorbance (at 350 nm), tubulin polymerization at 10° C.” value (tubulin)?
**A.** 0.0

**Q.** And the “absorbance (at 350 nm), tubulin polymerization at 37° C.” value (tubulin)?
**A.** 0.295

**Q.** And the “polymerization of tubulin at 10° C.” value (tubulin; taxol (10 μM), 10° C.)?
**A.** would not polymerize tubulin

**Q.** And the “polymerization of tubulin at 37° C.” value (tubulin; taxol (10 μM), 37° C.)?
**A.** would promote polymerization

**Q.** What about the “enhancement in radiosensitization, cervical carcinoma” value [5] of the same compound?
**A.** have not observed an enhancement in radiosensitization

**Q.** What about the “in vivo radiopotentiation” value [6] of the same compound?
**A.** potent in vivo radiopotentiating agent

**Q.** What about the “radiosensitization, human ovarian cancer cell lines” value [7] of the same compound?
**A.** radiosensitization

**Q.** And the serum half-life [8]?
**A.** up to 19 h

**Q.** And the viability at 0.01 µM ([1]; Homo sapiens, MCF7, 24 h, read-out: surviving fraction of MCF-7 cells)?
**A.** 6%

**Q.** And the “enhancement of radiosensitivity, G18” value [9]?
**A.** significant enhancement of radiosensitivity
